In patent publication US20250312499A1, “KISSPEPTIN RECEPTOR (KISS1R) TARGETED THERAPEUTICS AND USES THEREOF” (priority 2024, published 2025):
Numbered stars: 1 amine (or outer) side, 2 acyl side, 3 side chain; on linkers, the order of the positions; unused ones are H or OH. Square brackets hold non-standard residues; d marks the D form. Peptide text beside a SMILES is read from it. * marks the point of attachment. DOTA = O=C(O)CN1CCN(CC(=O)O)CCN(CC(=O)*)CCN(CC(=O)O)CC1; Gly(N-(3-F-4-Me-benzyl)) = Cc1ccc(CNCC(=O)*)cc1F; Gly(Nα-4-MeO-benzyl) = COc1ccc(CNCC(=O)*)cc1; d(γGlu) = O=C(O)[C@@H](CCC(=O)[*:2])N[*:1]; Bip = N[C@@H](Cc1ccc(-c2ccccc2)cc1)C(=O)O; Phe(3-F) = N[C@@H](Cc1cccc(F)c1)C(=O)O; Trx = NC[C@H]1CC[C@H](C(=O)O)CC1; X1 = O=C(CN1CCC(N[*:1])CC1)[*:2]; dCya = N[C@H](CS(=O)(=O)O)C(=O)O; Cha = N[C@@H](CC1CCCCC1)C(=O)O; 4Amb = NCc1ccc(C(=O)O)cc1; Api = NC1(C(=O)O)CCNCC1; Ahx = NCCCCCC(=O)O; azaGly = NNC(=O)O

Biological target: human kisspeptin receptor (Homo sapiens (Human), UniProt Q969F8)
Experiment: Human KISS1R binding assay (membrane competition binding)
Conditions: 90 min at room temperature; competition with 0.2 nM [125I]-metastin (45-54); Flp-In T-Rex 293 kisspeptin membranes; metal complexes nonradioactive Ga, In, Lu; read-out: hKiSSR Binding Ki (90 min)
Outline: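 Membranes from tetracycline-induced (48 h) Flp-In T-Rex 293 cells expressing receptor, 5–10 μg, incubated 90 min at room temperature with 0.2 nM [125I]-metastin (45-54) and competitor (typically 0–10,000 nM) in Tris/Mg/Ca/EGTA/0.1% BSA, pH 7.4. Filtration, washing, counting; Ki by non-linear regression.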

human kisspeptin receptor, sequence (Q969F8 whole entry): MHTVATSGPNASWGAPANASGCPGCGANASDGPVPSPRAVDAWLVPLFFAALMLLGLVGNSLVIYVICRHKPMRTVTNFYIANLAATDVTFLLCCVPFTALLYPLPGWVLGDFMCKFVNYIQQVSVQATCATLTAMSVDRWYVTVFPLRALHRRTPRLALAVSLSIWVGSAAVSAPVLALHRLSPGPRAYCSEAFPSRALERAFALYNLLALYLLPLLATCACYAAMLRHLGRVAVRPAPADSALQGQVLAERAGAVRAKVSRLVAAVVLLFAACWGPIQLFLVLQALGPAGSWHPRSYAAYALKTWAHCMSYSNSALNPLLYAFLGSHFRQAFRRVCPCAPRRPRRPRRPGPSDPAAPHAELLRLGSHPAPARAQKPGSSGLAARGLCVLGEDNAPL

Ki | SMILES
< 10 nM | Cc1ccc(CNCC(=O)N2CCC(NC(=O)[C@H](CC(C)C)NC(=O)NNC(=O)[C@H](Cc3ccccc3)NC(=O)CCCCCNC(=O)[C@@H](CS(=O)(=O)O)NC(=O)[C@@H](CS(=O)(=O)O)NC(=O)[C@@H](CS(=O)(=O)O)NC(=O)CN3CCN(CC(=O)O)CCN(CC(=O)O)CCN(CC(=O)O)CC3)(C(=O)N[C@@H](Cc3c[nH]c4ccccc34)C(N)=O)CC2)cc1F [Compound 131] ({DOTA}-[dCya][dCya][dCya][Ahx]F[azaGly]L[Api](Gly(N-(3-F-4-Me-benzyl)))W-NH2)
10 to 100 nM | Cc1ccc(CNCC(=O)N2CCC(NC(=O)c3cccc(OCCNC(=O)[C@H](Cc4ccccc4)NC(=O)CCCCCNC(=O)CN4CCN(CC(=O)O)CCN(CC(=O)O)CCN(CC(=O)O)CC4)c3)(C(=O)N[C@@H](Cc3c[nH]c4ccccc34)C(N)=O)CC2)cc1F [Compound 134]
> 100 nM | Cc1ccc(CNCC(=O)N2CCC(NC(=O)c3cccc(CNC(=O)[C@H](Cc4ccccc4)NC(=O)CCCCCNC(=O)CN4CCN(CC(=O)O)CCN(CC(=O)O)CCN(CC(=O)O)CC4)n3)(C(=O)N[C@@H](Cc3c[nH]c4ccccc34)C(N)=O)CC2)cc1F [Compound 135]
> 100 nM | Cc1ccc(CNCC(=O)N2CCC(NC(=O)c3ccnc(CNC(=O)[C@H](Cc4ccccc4)NC(=O)CCCCCNC(=O)CN4CCN(CC(=O)O)CCN(CC(=O)O)CCN(CC(=O)O)CC4)c3)(C(=O)N[C@@H](Cc3c[nH]c4ccccc34)C(N)=O)CC2)cc1F [Compound 136]
< 10 nM | Cc1ccc(CNCC(=O)N2CCC(NC(=O)[C@@H](CC(C)C)SCCNC(=O)[C@H](Cc3ccccc3)NC(=O)CCCCCNC(=O)CN3CCN(CC(=O)O)CCN(CC(=O)O)CCN(CC(=O)O)CC3)(C(=O)N[C@@H](Cc3c[nH]c4ccccc34)C(N)=O)CC2)cc1F [Compound 137]
10 to 100 nM | Cc1ccc(CNCC(=O)N2CCC(NC(=O)[C@H](CC(C)C)SC(C)(C)CNC(=O)[C@H](Cc3ccccc3)NC(=O)CCCCCNC(=O)CN3CCN(CC(=O)O)CCN(CC(=O)O)CCN(CC(=O)O)CC3)(C(=O)N[C@@H](Cc3c[nH]c4ccccc34)C(N)=O)CC2)cc1F [Compound 138]
10 to 100 nM | Cc1ccc(CNCC(=O)N2CCC(NC(=O)[C@H](CC(C)C)N3CC(NC(=O)[C@H](Cc4ccccc4)NC(=O)CCCCCNC(=O)CN4CCN(CC(=O)O)CCN(CC(=O)O)CCN(CC(=O)O)CC4)C3)(C(=O)N[C@@H](Cc3c[nH]c4ccccc34)C(N)=O)CC2)cc1F [Compound 139]
< 10 nM | COc1ccc(CNCC(=O)N2CCC(NC(=O)[C@H](CC(C)C)NC(=O)NNC(=O)[C@H](Cc3ccccc3)NC(=O)[C@@H](NC(=O)[C@H](CC(N)=O)NC(=O)[C@@H](Cc3c[nH]c4ccccc34)NC(=O)[C@@H](Cc3ccc(O)cc3)NC(=O)CCCCCNC(=O)CN3CCN(CC(=O)O)CCN(CC(=O)O)CCN(CC(=O)O)CC3)[C@@H](C)O)(C(=O)N[C@@H](Cc3ccccc3)C(N)=O)CC2)cc1 [Compound 140] ({DOTA-Ahx}-[dY][dW]NTF[azaGly]L[Api](Gly(Nα-4-MeO-benzyl))F-NH2)
10 to 100 nM | Cc1ccc(CNCC(=O)N2CCC(NC(=O)[C@H](CC(C)C)NC(=O)NNC(=O)[C@H](Cc3ccccc3)NC(=O)CCCCCNC(=O)CN3CCN(CC(=O)O)CCN(CC(=O)O)CCN(CC(=O)O)CC3)(C(=O)N[C@@H](CC3CCCCC3)C(N)=O)CC2)cc1F [Compound 141] ({DOTA-Ahx}-F[azaGly]L[Api](Gly(N-(3-F-4-Me-benzyl)))[Cha]-NH2)
< 10 nM | Cc1ccc(CNCC(=O)N2CCC(NC(=O)[C@H](CC(C)C)NC(=O)NNC(=O)[C@H](Cc3ccc(-c4ccccc4)cc3)NC(=O)CN3CCC(NC(=O)CN4CCN(CC(=O)O)CCN(CC(=O)O)CCN(CC(=O)O)CC4)CC3)(C(=O)N[C@@H](Cc3c[nH]c4ccccc34)C(N)=O)CC2)cc1F [Compound 142] ({DOTA}-[X1][Bip][azaGly]L[Api](Gly(N-(3-F-4-Me-benzyl)))W-NH2)
< 10 nM | Cc1ccc(CNCC(=O)N2CCC(NC(=O)[C@H](CC(C)C)NC(=O)NNC(=O)[C@H](Cc3ccccc3)NC(=O)c3ccc(CNC(=O)[C@@H](CS(=O)(=O)O)NC(=O)[C@@H](CS(=O)(=O)O)NC(=O)CN4CCN(CC(=O)O)CCN(CC(=O)O)CCN(CC(=O)O)CC4)cc3)(C(=O)N[C@@H](Cc3c[nH]c4ccccc34)C(N)=O)CC2)cc1F [Compound 146] ({DOTA}-[dCya][dCya][4Amb]F[azaGly]L[Api](Gly(N-(3-F-4-Me-benzyl)))W-NH2)
> 100 nM | Cc1ccc(CNCC(=O)N2CCC(NC(=O)[C@H](CC(C)C)N[C@H](CNC(=O)[C@H](Cc3ccccc3)NC(=O)CCCCCNC(=O)CN3CCN(CC(=O)O)CCN(CC(=O)O)CCN(CC(=O)O)CC3)C(F)(F)F)(C(=O)N[C@@H](Cc3c[nH]c4ccccc34)C(N)=O)CC2)cc1F [Compound 147]
10 to 100 nM | Cc1ccc(CNCC(=O)N2CCC(NC(=O)[C@H](CC(C)C)N[C@@H](CNC(=O)[C@H](Cc3ccccc3)NC(=O)CCCCCNC(=O)CN3CCN(CC(=O)O)CCN(CC(=O)O)CCN(CC(=O)O)CC3)C(F)(F)F)(C(=O)N[C@@H](Cc3c[nH]c4ccccc34)C(N)=O)CC2)cc1F [Compound 148]
< 10 nM | Cc1ccc(CNCC(=O)N2CCC(NC(=O)[C@H](CC(C)C)NC(=O)NNC(=O)[C@H](Cc3ccccc3)NC(=O)[C@@H](NC(=O)[C@H](CC(N)=O)NC(=O)[C@@H](Cc3c[nH]c4ccccc34)NC(=O)[C@@H](Cc3ccc(O)cc3)NC(=O)CCCCCNC(=O)[C@H](Cc3ccc(O)cc3)NC(=O)CNC(=O)c3ccc(CNC(=O)CN4CCN(CC(=O)O)CCN(CC(=O)O)CCN(CC(=O)O)CC4)cc3)[C@@H](C)O)(C(=O)N[C@@H](Cc3c[nH]c4ccccc34)C(N)=O)CC2)cc1F [Compound 149] ({DOTA-4Amb}-GY[Ahx][dY][dW]NTF[azaGly]L[Api](Gly(N-(3-F-4-Me-benzyl)))W-NH2)
< 10 nM | Cc1ccc(CNCC(=O)N2CCC(NC(=O)[C@H](CC(C)C)NC(=O)NNC(=O)[C@H](Cc3ccccc3)NC(=O)[C@@H](NC(=O)[C@H](CC(N)=O)NC(=O)[C@@H](Cc3c[nH]c4ccccc34)NC(=O)[C@H](Cc3ccc(O)cc3)NC(=O)CNC(=O)CN3CCN(CC(=O)O)CCN(CC(=O)O)CCN(CC(=O)O)CC3)[C@@H](C)O)(C(=O)N[C@@H](Cc3c[nH]c4ccccc34)C(N)=O)CC2)cc1F [Compound 151] ({DOTA}-GY[dW]NTF[azaGly]L[Api](Gly(N-(3-F-4-Me-benzyl)))W-NH2)
< 10 nM | Cc1ccc(CNCC(=O)N2CCC(NC(=O)[C@H](CC(C)C)NC(=O)NNC(=O)[C@H](Cc3ccccc3)NC(=O)CC[C@@H](NC(=O)CN3CCN(CC(=O)O)CCN(CC(=O)O)CCN(CC(=O)O)CC3)C(=O)O)(C(=O)N[C@@H](Cc3c[nH]c4ccccc34)C(N)=O)CC2)cc1F [Compound 156] ({DOTA-d(γGlu)}-F[azaGly]L[Api](Gly(N-(3-F-4-Me-benzyl)))W-NH2)
< 10 nM | Cc1ccc(CNCC(=O)N2CCC(NC(=O)[C@H](CC(C)C)NC(=O)NNC(=O)[C@H](Cc3ccccc3)NC(=O)[C@@H](NC(=O)[C@H](CC(N)=O)NC(=O)CN3CCC(NC(=O)CN4CCN(CC(=O)O)CCN(CC(=O)O)CCN(CC(=O)O)CC4)CC3)[C@@H](C)O)(C(=O)N[C@@H](Cc3c[nH]c4ccccc34)C(N)=O)CC2)cc1F [Compound 158] ({DOTA}-[X1]NTF[azaGly]L[Api](Gly(N-(3-F-4-Me-benzyl)))W-NH2)
< 10 nM | Cc1ccc(CNCC(=O)N2CCC(NC(=O)[C@H](CC(C)C)NC(=O)NNC(=O)[C@H](Cc3cccc(F)c3)NC(=O)[C@@H](NC(=O)[C@H](CC(N)=O)NC(=O)[C@H](CCC(=O)O)NC(=O)CN3CCC(NC(=O)CN4CCN(CC(=O)O)CCN(CC(=O)O)CCN(CC(=O)O)CC4)CC3)[C@@H](C)O)(C(=O)N[C@@H](Cc3c[nH]c4ccccc34)C(N)=O)CC2)cc1F [Compound 159] ({DOTA}-[X1]ENT[Phe(3-F)][azaGly]L[Api](Gly(N-(3-F-4-Me-benzyl)))W-NH2)
< 10 nM | Cc1ccc(CNCC(=O)N2CCC(NC(=O)[C@H](CC(C)C)NC(=O)NNC(=O)[C@H](Cc3cccc(F)c3)NC(=O)[C@@H](NC(=O)[C@H](CC(N)=O)NC(=O)[C@H](CCC(=O)O)NC(=O)[C@H]3CC[C@H](CNC(=O)CN4CCN(CC(=O)O)CCN(CC(=O)O)CCN(CC(=O)O)CC4)CC3)[C@@H](C)O)(C(=O)N[C@@H](Cc3c[nH]c4ccccc34)C(N)=O)CC2)cc1F [Compound 160] ({DOTA-Trx}-ENT[Phe(3-F)][azaGly]L[Api](Gly(N-(3-F-4-Me-benzyl)))W-NH2)
< 10 nM | Cc1ccc(CNCC(=O)N2CCC(NC(=O)[C@H](CC(C)C)NC(=O)NNC(=O)[C@H](Cc3cccc(F)c3)NC(=O)[C@@H](NC(=O)[C@H](CC(N)=O)NC(=O)[C@@H](CCC(=O)O)NC(=O)[C@H]3CC[C@H](CNC(=O)CN4CCN(CC(=O)O)CCN(CC(=O)O)CCN(CC(=O)O)CC4)CC3)[C@@H](C)O)(C(=O)N[C@@H](Cc3c[nH]c4ccccc34)C(N)=O)CC2)cc1F [Compound 161] ({DOTA-Trx}-[dE]NT[Phe(3-F)][azaGly]L[Api](Gly(N-(3-F-4-Me-benzyl)))W-NH2)
< 10 nM | Cc1ccc(CNCC(=O)N2CCC(NC(=O)[C@H](CC(C)C)NC(=O)NNC(=O)[C@H](Cc3cccc(F)c3)NC(=O)[C@@H](NC(=O)[C@H](CC(N)=O)NC(=O)[C@H](CCCCN)NC(=O)CN3CCC(NC(=O)CN4CCN(CC(=O)O)CCN(CC(=O)O)CCN(CC(=O)O)CC4)CC3)[C@@H](C)O)(C(=O)N[C@@H](Cc3c[nH]c4ccccc34)C(N)=O)CC2)cc1F [Compound 164] ({DOTA}-[X1]KNT[Phe(3-F)][azaGly]L[Api](Gly(N-(3-F-4-Me-benzyl)))W-NH2)
< 10 nM | Cc1ccc(CNCC(=O)N2CCC(NC(=O)[C@H](CC(C)C)NC(=O)NNC(=O)[C@H](Cc3ccccc3)NC(=O)[C@H]3CC[C@H](CNC(=O)CC[C@@H](NC(=O)CN4CCN(CC(=O)O)CCN(CC(=O)O)CCN(CC(=O)O)CC4)C(=O)O)CC3)(C(=O)N[C@@H](Cc3c[nH]c4ccccc34)C(N)=O)CC2)cc1F [Compound 165] ({DOTA-d(γGlu)-Trx}-F[azaGly]L[Api](Gly(N-(3-F-4-Me-benzyl)))W-NH2)
